According to patent publication US6521814B1, “Use of ligands for treatment of diseases responsive to retinoids” (Institut National de la Santa et de la Recherche Medicale, priority 1997, dated 2003):

Assays:
[1] = system: RARγ−/− F9 cells; assay: Differentiation of F9 cells into primitive and parietal endoderm-like cells in monolayer (morphology, RT-PCR of collagen type IVα1 and laminin B1); assay type: cell-based, murine; conditions: 1 μM, 48 h
Protocol: (§1) The differentiation patterns of RXRα^−/−/RARα^−/−and RXRα^−/−/RARγ^−/− cells were compared with those of WT and single knockout cell lines.
(§2) F9 cells were cultured and induced to differentiate into primitive, parietal and visceral endoderm-like cells as previously described (Boylan, J., et al., Proc. Natl. Acad. Sci. USA 90:9601-9605 (1993); Clifford, J., et al., EMBO J. 15:4142-4155 (1996)).
(§3) RNA preparation, RT-PCR, and Southern blotting were performed as previously described (Bouillet, P., et al., Dev. Biol. 170:420-433 (1995); Roy, B., et al., Mol. Cell. Biol. 15:6481-6487 (1995)). The PCR primers and end-labeled oligonucleotide probes for collagen IVα1, laminin B1, α-fetoprotein (AFP), and 36B4, were described previously (Clifford, J., et al ., EMBO J. 15:4142-4155 (1996)). Transcript levels were quantified using a BAS 2000 bioimaging analyzer (Fuji Ltd., Tokyo, Japan), and were normalized to the corresponding 36B4 signals.

[2] = system: RARα−/− F9 cells; assay: as above; assay type: cell-based, murine; conditions: 1 μM, 48 h
Protocol: as §1, §2, §3

[3] = system: RXRα−/− F9 cells; assay: Morphological differentiation of F9 cell aggregates into visceral endoderm (VE)-like cells (morphology, RT-PCR of markers); assay type: cell-based, murine; conditions: 50 nM, 10 d
Source text: (§4) Transcript levels were quantified using a BAS 2000 bioimaging analyzer (Fuji Ltd., Tokyo, Japan), and were normalized to the corresponding 36B4 signals.

[4] = system: RXRα−/−/RARγ−/− F9 cells; assay: as above; assay type: cell-based, murine
Source text: as §4

[5] = system: RXRα−/−/RARα−/− F9 cells; assay: as above; assay type: cell-based, murine; conditions: 50 nM
Source text: as §4

[6] = system: RXRα−/− F9 cells; assay: Proliferation of F9 cells in monolayer culture (cell counting, [3H]thymidine incorporation, cell cycle FACS); assay type: cell-based, murine; conditions: 1 μM, 5 d
[7] = system: RXRα−/−/RARα−/− F9 cells; assay: as above; assay type: cell-based, murine; conditions: 1 μM, 5 d
[8] = system: RXRα−/−/RARγ−/− F9 cells; assay: Apoptosis of F9 cells (Hoechst 33258 staining, FACS); assay type: cell-based, murine; conditions: 1 μM, after 5 d
[9] = system: RARα−/− F9 cells; assay: as above; assay type: cell-based, murine; conditions: 1 μM, 6 d
Protocol: (§5) Apoptosis was analyzed by both Hoechst staining of nuclei and FACS® analysis, as previously described (Clifford, J., et al., EMBO J. 15:4142-4155 (1996)).

[10] = system: RXRα−/− F9 cells; assay: as above; assay type: cell-based, murine; conditions: 1 μM
[11] = system: RARγ−/− F9 cells; assay: Morphological differentiation of F9 cell aggregates into visceral endoderm (VE)-like cells (morphology, RT-PCR of markers); assay type: cell-based, murine
Protocol: as §2, §3

[12] = system: D2R promoter; assay: D2R promoter CAT reporter assay in transfected COS-1 cells, reporter alone; assay type: cell-based, rat; conditions: C1 reporter-transfected COS-1 cells, no receptor vector; 10^−7 M
Source text: Expression Vectors. The C1 reporter construct was obtained by subcloning the HindIII fragment spanning the 5 ′ promoter region of the D2R gene (positions −495 to +273), in the reporter plasmid pBLCAT3 (Luckow, B. & Schütz, G., Nucleic Acids Res. 15:5490 (1987)). The C2 reporter plasmid was constructed by subcloning the SmaI-XhoI fragment (positions −76 to +273) in the same position. The C3 and C4 reporters were generated by cloning a 29 bp synthetic oligonucleotide corresponding, respectively, to the natural rat D2R RARE sequence and the mutated one into pBLCAT2 (Luckow, B. & Schütz, G., Nucleic Acids Res. 15:5490 (1987)). The polylinker in pBLCAT2 is located upstream of the herpes simplex virus 1 (HSV1) thymidine kinase (TK) promoter, from position −105 to +51. To measure transfection efficiency the plasmid pCH110 carrying the β-galactosidase gene (Pharmacia) was used. Mouse […], as well as mouse RXRα, β and γ expression vectors were derived from the parental pSG5 vector (Green, S., et al., Nucleic Acids Res. 16:369 (1988)).
COS-1 cells were used for transient transfection assays. Cells were grown in Dulbecco's modified Eagle's medium supplemented with 5% fetal calf serum.
Several hours before transfection, the medium was replaced with fresh medium containing 5% charcoal-treated FCS. […]

[13] = system: RXRα−/− F9 cells; assay: Differentiation of F9 cells into primitive and parietal endoderm-like cells in monolayer (morphology, RT-PCR of collagen type IVα1 and laminin B1); assay type: cell-based, murine; conditions: 1 μM, 48 h
Source text: as §1, §4

[14] = system: RXRα−/−/RARγ−/− F9 cells; assay: as above; assay type: cell-based, murine
Source text: as §1, §4

[15] = system: RXRα−/−/RARα−/− F9 cells; assay: as above; assay type: cell-based, murine
Source text: as §1, §4

[16] = system: RXRα−/−/RARα−/− F9 cells; assay: Apoptosis of F9 cells (Hoechst 33258 staining, FACS); assay type: cell-based, murine; conditions: 1 μM
[17] = system: WT F9 cells; assay: as above; assay type: cell-based, murine; conditions: 1 μM
Protocol: as §5

[18] = system: RARγ−/− F9 cells; assay: as above; assay type: cell-based, murine; conditions: 1 μM, 6 d
Protocol: as §5

[19] = 1 μM tRA alone or with 250 μM bt2cAMP, after 4 d

## CC1=C(/C=C/C(C)=C/C=C/C(C)=C/C(=O)O)C(C)(C)CCC1 [tRA, all-trans retinoic acid]
[1]
  induction of collagen type IVα1 mRNA, lower level compared to WT cells: 10 fold
  induction of laminin B1 mRNA, lower level compared to WT cells: 6 fold
[2]
  induction of collagen type IVα1 and laminin B1 mRNA compared to WT cells: not altered
[3]
  proportion of outer layer of cells displaying VE morphology: +++ (more than 80%)
[4]; RXRα−/−/RARγ−/− aggregates, 50 nM, 10 d
  induction of collagen IVα1, laminin B1 or AFP mRNA: no induction
[4]; RXRα−/−/RARγ−/−, 50 nM, after 10 days
  surface of the aggregates: as smooth after 10 days of treatment as in untreated controls
[4]; RXRα−/−/RARγ−/−, after 12 or 18 d of treatment
  aggregates displaying only a spotty VE conversion: < 10%
[5]; RXRα−/−/RARα−/− aggregates, 10 d
  induction of collagen type IVα1, laminin B1 and AFP mRNA: similarly induced
[5]; RXRα−/−/RARα−/−, 10 d
  proportion of outer layer of cells displaying VE morphology: +++ (more than 80%)
[5]; RXRα−/−/RARα−/−, after 10 d
  outer layer of cell aggregates differentiated into VE-like cells: > 80%
[6]
  proportion of cells in the G0 and G1 phases (FACS): 38%
[7]
  proportion of cells in the G0 and G1 phases (FACS): 40%
[8]
  sub-2N size DNA-containing particles ('apoptotic bodies'), FACS: not detected
[9]
  proportion of apoptotic nuclei and subcellular fragments (Hoechst 33258): ++ (>10%)
[10]; 6 d
  proportion of apoptotic nuclei and subcellular fragments (Hoechst 33258): ± (<1%)
[10]; after 5 d
  sub-2N size DNA-containing particles ('apoptotic bodies'), FACS: not detected
[11]; RARγ−/− aggregates, 50 nM, 10 d
  induction of AFP mRNA: hardly detectable
[11]; RARγ−/−, 50 nM, 10 d
  proportion of outer layer of cells displaying VE morphology: ± (not more than 10%)
[11]; RARγ−/−, 50 nM, after 10 d
  outer layer of cells exhibiting VE conversion: < 10%
[11]; RARγ−/−, 50 nM, after 14 d of treatment
  proportion of outer layer of cells displaying VE morphology: +++ (more than 80%)
[11]; RARγ−/−, after 14 d of treatment
  VE differentiation: full VE differentiation was eventually achieved
[12]
  changes in CAT activity: no significant changes
[13]
  induction of collagen type IVα1 mRNA, lower level compared to WT cells: 3 fold
  induction of laminin B1 mRNA, lower level compared to WT cells: 6 fold
[14]; [19]
  morphological differentiation: No morphological differentiation at all
[14]; 1 μM, 48 h
  induction of collagen type IVα1 and laminin B1 mRNA: fully abrogated
[14]; after 6 days of treatment
  cells exhibiting a differentiated morphology: < 0.1%
[14]; after 10 d of treatment
  morphological differentiation: undifferentiated phenotype persisted
[15]; [19]
  cells with morphological characteristics of primitive or parietal endodermal differentiation: < 10%
[15]; 1 μM, 48 h
  induction of collagen type IVα1 mRNA, lower level compared to WT cells: five
[16]; 6 d
  proportion of apoptotic nuclei and subcellular fragments (Hoechst 33258): ± (<1%)
[16]; after 5 d
  sub-2N size DNA-containing particles ('apoptotic bodies'), FACS: not detected
[17]; 6 d
  proportion of apoptotic nuclei and subcellular fragments (Hoechst 33258): ++ (>10%)
[17]; after 5 d
  sub-2N size DNA-containing particles ('apoptotic bodies'), FACS: appeared
[18]
  proportion of apoptotic nuclei and subcellular fragments (Hoechst 33258): + (>1-10%)
